{"source": "patent US20110191897A1", "about": "“Plants Tolerant to HPPD Inhibitor Herbicides” (Bayer CropScience AG, priority 2009, published 2011)", "key": {"[1]": {"test_system": "T1 tobacco plants with Arabidopsis HPPD", "assay": "Glasshouse spray trial, herbicidal damage", "format": "in vivo, Nicotiana tabacum", "conditions": "100 gAl/ha, 7DAT", "method": "(§1) T0 Tobacco plants containing either the gene from Arabidopsis coding for HPPD or the gene FMP37e from Blepharisma japonicum coding for FMP37 HPPD, mentioned above (Example 3), were transferred to the glasshouse (28/20° C.), to develop further and produce seeds. Those seeds were harvested and put on soil (ED73 mixed with sand and osmocote Pro) to germinate in the glasshouse (28/20° C.). Three to four weeks later, plantlets were transferred to single pots containing the soil mentioned above. Two weeks later, plants of a size 4-6 cm diameter were sprayed with either • tembotrione at 100 Al/ha prepared from a WP20 (wettable powder 20%) formulation supplemented with ammonium sulfate and methyl ester raps oil, or • isoxaflutole at 100 Al/ha prepared from a WP20 formulation supplemented with ammonium sulfate and methyl ester raps oil, or • bicyclopyrone at 100 gAl/ha prepared from a WP20 formulation supplemented with ammonium sulfate and methyl ester raps oil, or • “blind formulation” made from a WP20 formulation without active ingredient (Al) supplemented with ammonium sulfate and methyl ester raps oil, and were then transferred to a growth chamber with adequate light conditions (20000Lux)."}, "[2]": {"test_system": "T1 tobacco plants with FMP37e coding for the HPPD FMP37", "assay": "Glasshouse spray trial, herbicidal damage", "format": "in vivo, Nicotiana tabacum", "conditions": "line 113, individual plants, 100 gAl/ha, 7DAT", "method": "as §1"}, "[3]": {"test_system": "T0 rice plants with FMP37e", "assay": "Rice glasshouse trial, response to tembotrione", "format": "in vivo", "conditions": "100 g AI/ha, 7 DAT", "method": "(§2) T0 rooted plantlets (either selected on phosphinothricin alone or on phosphinothricin supplemented with tembotrione) were transferred to soil in the glasshouse. Following an acclimation period, sufficiently grown plants were treated with the different HPPD inhibitor herbicides. As an example, T0 plants were sprayed with tembotrione of formulation type WP20 100 g Al/ha supplemented with ammonium sulfate and methyl ester raps oil. Seven days after the spray application, the symptoms due to the application of the herbicide were evaluated and compared the symptoms observed on wild type plants submitted to the same treatment.\n(§3) The plants were classified in three categories based on the phenotype developed in response to the herbicide seven days after the treatment."}, "[4]": {"test_system": "wild type rice plants", "assay": "Rice glasshouse trial, response to tembotrione", "format": "in vivo", "conditions": "100 g AI/ha, 7 DAT", "method": "as §2, §3"}, "[5]": {"test_system": "tobacco plants with FMP37t-h, PAT and 2mEPSPS (pFCO112)", "assay": "Glasshouse trial of tobacco with three tolerance genes", "format": "in vivo, Nicotiana tobacum", "conditions": "9 DAT", "method": "A binary vector for tobacco transformation is, for example, constructed with the CaMV35 promoter driving the expression of the gene FMP37t-h (SEQ ID No. 15), with a codon usage optimized for the expression in dicotyledoneous plants and at its 5′ extremity was added a sequence coding for an OTP, and further upstream a sequence TEV (Tobacco etch virus) to improve the stability of the mRNA in plants followed by the CaMV35S terminator. The nucleotide sequence of the gene FMP37t-h is given in SEQ ID No. 15. Additionally, the transformation vector also contains a PAT gene cassette in which the gene is driven by a CaVM35S promoter and followed by a CaMV35S terminator for glufosinate based selection during the transformation process and a 2mEPSPS gene cassette in which the gene is driven by an histone promoter from Arabidopsis to confer tolerance to the herbicide glyphosate to the transformed plants (see FIG. 3 H). The binary vector was called pFCO112. The above vector was used to transform leaf disks obtained from Nicotiana tobacum plants, according to Example 3.\nTransgenic tobacco plants were transferred to the greenhouse and treated with glyphosate at a rate of 1121 g Al/ha. Seeds were produced from such tolerant tobacco plants and harvested. These seeds were put on soil to germinate in the glasshouse. Three to four weeks later, 50 plantlets per event were transferred to single pots. Two weeks later, plants of a size 4-6 cm were sprayed either with:\n[…] […] Non-transgenic tobacco plants were completely killed by treatment using one or more of the above herbicides."}}, "note": "“And” between values parts separate entries of the source, which are not always exact repeats. Equal entries are not always repeated.", "data": [{"compound": "CS(=O)(=O)c1ccc(C(=O)C2C(=O)CCCC2=O)c(Cl)c1COCC(F)(F)F", "note": "[Tembotrione, 2-[2-chloro-4-(methylsulfonyl)-3-[(2,2,2,-tri-fluoroethoxy)methyl]benzoyl]-1,3-cyclo-hexanedione]", "values": [{"measurement": "% injury", "setting": "[1]; line 252, individual plants", "value": 40, "unit": "%"}, {"measurement": "% injury", "setting": "[1]; line 258, individual plants", "value": 100, "unit": "%"}, {"measurement": "% injury", "setting": "[1]; line 327, individual plants", "value": "40% and 50%"}, {"measurement": "% injury", "setting": "[2]", "value": "5% and 10% (2×) and 40% and 70%"}, {"measurement": "number of plants in Class I (no injuries)", "setting": "[3]", "value": 1}, {"measurement": "number of plants in Class II (injury: 10-40%)", "setting": "[3]", "value": 6}, {"measurement": "number of plants in Class III (injury: 41-100%)", "setting": "[3]", "value": 16}, {"measurement": "number of plants in Class II (injury: 10-40%)", "setting": "[4]", "value": 0}, {"measurement": "number of plants in Class I (no injuries)", "setting": "[5]; line 634, 100 g AI/ha", "value": 0}, {"measurement": "number of plants in Class II (injury: 10-40%)", "setting": "[5]; line 634, 100 g AI/ha", "value": 3}, {"measurement": "number of plants in Class III (injury: 41-100%)", "setting": "[5]; line 634, 100 g AI/ha", "value": 7}, {"measurement": "number of plants in Class I (no injuries)", "setting": "[5]; line 713, 100 g AI/ha", "value": 0}, {"measurement": "number of plants in Class II (injury: 10-40%)", "setting": "[5]; line 713, 100 g AI/ha", "value": 6}, {"measurement": "number of plants in Class III (injury: 41-100%)", "setting": "[5]; line 713, 100 g AI/ha", "value": 4}]}]}
